We go through 39 compounds from patent publication US20170333591A9, “ABSORBENT ARTICLE COMPRISING MALODOR REDUCTION COMPOSITIONS” (The Procter & Gamble Company, priority 2014, published 2017).

The data set is described as follows: Log of liquid dish neat product liquid-air partition coefficient. It is filed as physicochemical. To be noted: for Log of liquid dish neat product liquid-air partition coefficient (Comment Code): code letters K/L of the Comment Code; for Log of liquid dish neat product liquid-air partition coefficient (Comment Code K/L): Comment Code letters K and/or L.

SMILES strings stand for the structures.

As for `CC1=CC[C@@H]2[C@@]3(C)CCCC(C)(C)[C@@H]3CC[C@@]2(C)O1` [Material 1029], the “Comment Code: Log of liquid dish neat product liquid-air partition coefficient” value (“Comment Code: Log” for short) is “K (Log of liquid dish neat product liquid-air partition coefficient greater than or equal to 7)” and the “Log of liquid dish neat product liquid-air partition coefficient (Comment Code)” value (from here on “Log … (Comment Code)”) is listed as “K (Log of liquid dish neat product liquid-air partition coefficient greater than or equal to 7)”.

With `CCCOC(=O)[C@H](C)OC(C)(C)CC` [Material 1030], the “Comment Code: Log” value was “K (Log of liquid dish neat product liquid-air partition coefficient greater than or equal to 7)”.

As for `CC(C)Cc1ccc(CC(C)C=O)cc1` (stereo not drawn) [Material 1033], the “Log … (Comment Code)” value is “K (Log of liquid dish neat product liquid-air partition coefficient greater than or equal to 7)”.

On to `C=C1CC[C@@H]2[C@H]([C@H]3[C@H]1CC[C@]3(C)O)C2(C)C` [Material 1035], for which the “Comment Code: Log” value was “K (Log of liquid dish neat product liquid-air partition coefficient greater than or equal to 7)” and the “Log … (Comment Code)” value is given as “K (Log of liquid dish neat product liquid-air partition coefficient greater than or equal to 7)”.

On to `CC1CCC2C(C2(C)C)C12COC(C)(C)OC2` (stereo not drawn) [Material 1036], for which the “Log … (Comment Code)” value is listed as “K (Log of liquid dish neat product liquid-air partition coefficient greater than or equal to 7)”.

On to `C=CCCC(=O)C1=CCCC2(CCCC2)C1` [Material 1038], for which the “Comment Code: Log” value is recorded as “K (Log of liquid dish neat product liquid-air partition coefficient greater than or equal to 7)” and the “Log … (Comment Code)” value is on record as “K (Log of liquid dish neat product liquid-air partition coefficient greater than or equal to 7)”.

In the case of `CC(=O)OC(C)c1ccccc1` (stereo not drawn) [Material 1041], the “Comment Code: Log” value is “K (Log of liquid dish neat product liquid-air partition coefficient greater than or equal to 7)”.

In the case of `CCCCCCC/C=C\CCC=O` [Material 1045], the “Log … (Comment Code)” value is on record as “K (Log of liquid dish neat product liquid-air partition coefficient greater than or equal to 7)”.

On to `CC1=CC2C(C(C)C)CCC(C)(O)C2CC1` (stereo not drawn) [Material 1046], for which the “Log … (Comment Code)” value was “K (Log of liquid dish neat product liquid-air partition coefficient greater than or equal to 7)”.

Regarding `CC1=CC2C(C(C)C)CCC(C)(O)C2CC1` (stereo not drawn) [Material 1047], the “Log … (Comment Code)” value is “K (Log of liquid dish neat product liquid-air partition coefficient greater than or equal to 7)”.

In the case of `CC(O)CCC1C(C)CCCC1(C)C` (stereo not drawn) [Material 1052], the “Comment Code: Log” value is listed as “K (Log of liquid dish neat product liquid-air partition coefficient greater than or equal to 7)”.

With `CCCC(O)CCC1C(C)CCCC1(C)C` (stereo not drawn) [Material 1063], the “Log … (Comment Code)” value is on record as “K (Log of liquid dish neat product liquid-air partition coefficient greater than or equal to 7)”.

On to `CC(C)=CCC/C(C)=C/CC/C(C)=C/CO` [Material 1065], for which the “Log … (Comment Code)” value is recorded as “K (Log of liquid dish neat product liquid-air partition coefficient greater than or equal to 7)”.

Take `CC/C=C\C/C=C/CCO` [Material 1072]: the “Log … (Comment Code)” value is “K (Log of liquid dish neat product liquid-air partition coefficient greater than or equal to 7)”.

On to `CC=CC(=O)C1C(C)=CCCC1(C)C` (stereo not drawn) [Material 1074], for which the “Comment Code: Log” value is “K (Log of liquid dish neat product liquid-air partition coefficient greater than or equal to 7)”.

Regarding `CC(C)=CCC/C(C)=C/CO` [Material 1082], the “Log … (Comment Code)” value is given as “K (Log of liquid dish neat product liquid-air partition coefficient greater than or equal to 7)”.

As to `CCCCCC1C(=O)CCC1CC(=O)OC` (stereo not drawn) [Material 1083], the “Log … (Comment Code)” value is reported as “K (Log of liquid dish neat product liquid-air partition coefficient greater than or equal to 7)”.

Regarding `C/C=C/c1ccc(O)c(OC)c1` [Material 1084], the “Comment Code: Log” value is given as “K (Log of liquid dish neat product liquid-air partition coefficient greater than or equal to 7)”.

Regarding `CCCCCCCCCCCCCO` [Material 1090], the “Log … (Comment Code)” value is on record as “K (Log of liquid dish neat product liquid-air partition coefficient greater than or equal to 7)”.

For the compound `CC(=O)C1CC/C(C)=C\CC/C(C)=C\C/C=C/1C` (stereo not drawn) [Material 1095], the “Log … (Comment Code)” value was “K (Log of liquid dish neat product liquid-air partition coefficient greater than or equal to 7)”.

Consider `CC1CC2CCC3C(C2O1)C(C)(C)C(C)C3(C)C` (stereo not drawn) [Material 1097], for which the “Comment Code: Log” value was “K (Log of liquid dish neat product liquid-air partition coefficient greater than or equal to 7)” and the “Log … (Comment Code)” value was “K (Log of liquid dish neat product liquid-air partition coefficient greater than or equal to 7)”.

For the compound `CC1CC=CCCCCCCCC(=O)OCC1` (stereo not drawn) [Material 1099], the “Log … (Comment Code)” value is reported as “K (Log of liquid dish neat product liquid-air partition coefficient greater than or equal to 7)”.

For the compound `CCCCCCCCCCC=O` [Material 1102], the “Log … (Comment Code)” value is on record as “K (Log of liquid dish neat product liquid-air partition coefficient greater than or equal to 7)”.

As to `CCC=C(C)C(O)CCCCC` (stereo not drawn) [Material 1104], the “Log … (Comment Code)” value is “K (Log of liquid dish neat product liquid-air partition coefficient greater than or equal to 7)”.

In the case of `C=C(C)[C@@H]1CCC2=CCC[C@@H](C)[C@]2(C)C1` [Material 1105], the “Log … (Comment Code)” value is “K (Log of liquid dish neat product liquid-air partition coefficient greater than or equal to 7)”.

For `C[C@@H]1CCC=C2CC[C@@H](C(C)(C)O)C[C@]21C` [Material 1107], the “Comment Code: Log” value is “K (Log of liquid dish neat product liquid-air partition coefficient greater than or equal to 7)” and the “Log … (Comment Code)” value is “K (Log of liquid dish neat product liquid-air partition coefficient greater than or equal to 7)”.

Take `CC=Cc1ccc(OCC)c(O)c1` [Material 1112]: the “Comment Code: Log” value is “K (Log of liquid dish neat product liquid-air partition coefficient greater than or equal to 7)”.

As for `COCc1ccc(O)c(OC)c1` [Material 1113], the “Log of liquid dish neat product liquid-air partition coefficient (Comment Code K/L)” value (shortened to “Log … (Comment Code K/L)”) was “K (Log of liquid dish neat product liquid-air partition coefficient greater than or equal to 7)”.

Consider `CC(C=O)=CCC1C(C)=CCCC1(C)C` (stereo not drawn) [Material 1116], for which the “Log … (Comment Code K/L)” value is “K (Log of liquid dish neat product liquid-air partition coefficient greater than or equal to 7)”.

With `COc1ccc(C=O)cc1OC` [Material 1118], the “Comment Code: Log” value is listed as “K (Log of liquid dish neat product liquid-air partition coefficient greater than or equal to 7)”.

For `CC1CC(C)(c2ccccc2)OC(C)O1` (stereo not drawn) [Material 1126], the “Log … (Comment Code K/L)” value was “K (Log of liquid dish neat product liquid-air partition coefficient greater than or equal to 7)”.

On to `CC(=O)C1=C(C)[C@@H]2C[C@@]3(C1)[C@H](C)CC[C@H]3C2(C)C` [Material 1129], for which the “Comment Code: Log” value is “K (Log of liquid dish neat product liquid-air partition coefficient greater than or equal to 7)” and the “Log … (Comment Code K/L)” value was “K (Log of liquid dish neat product liquid-air partition coefficient greater than or equal to 7)”.

Consider `CC(=O)OC(C)CC(C)(C)c1ccccc1` (stereo not drawn) [Material 1134], for which the “Comment Code: Log” value is reported as “K (Log of liquid dish neat product liquid-air partition coefficient greater than or equal to 7)”.

As to `C[C@@H]1CC[C@H]2[C@@H]1[C@H]1[C@@H](CC[C@]2(C)O)C1(C)C` [Material 1140], the “Comment Code: Log” value was “K (Log of liquid dish neat product liquid-air partition coefficient greater than or equal to 7)” and the “Log … (Comment Code K/L)” value is on record as “K (Log of liquid dish neat product liquid-air partition coefficient greater than or equal to 7)”.

Take `C[C@H]1[C@@H]2C[C@H](C[C@@]13C=CC(=O)CC3)C2(C)C` [Material 1143]: the “Comment Code: Log” value is given as “K (Log of liquid dish neat product liquid-air partition coefficient greater than or equal to 7)” and the “Log … (Comment Code K/L)” value is recorded as “K (Log of liquid dish neat product liquid-air partition coefficient greater than or equal to 7)”.

Turning to `CC1(C)C2CCC3(C2)C1C1(CCC3(C)C)OCCO1` (stereo not drawn) [Material 1144], the “Comment Code: Log” value is on record as “K (Log of liquid dish neat product liquid-air partition coefficient greater than or equal to 7)” and the “Log … (Comment Code K/L)” value is on record as “K (Log of liquid dish neat product liquid-air partition coefficient greater than or equal to 7)”.

For the compound `CC1(C)C2CCC3(C2)C1C1(CCC3(C)C)OCCO1` (stereo not drawn) [Material 1145], the “Comment Code: Log” value is reported as “K (Log of liquid dish neat product liquid-air partition coefficient greater than or equal to 7)” and the “Log … (Comment Code K/L)” value is listed as “K (Log of liquid dish neat product liquid-air partition coefficient greater than or equal to 7)”.

For the compound `C=C1CCC2OC2(C)CCC2C1CC2(C)C` (stereo not drawn) [Material 1148], the “Comment Code: Log” value is “K (Log of liquid dish neat product liquid-air partition coefficient greater than or equal to 7)” and the “Log … (Comment Code K/L)” value was “K (Log of liquid dish neat product liquid-air partition coefficient greater than or equal to 7)”.

With `CC1(C)C2CCC3(C2)C1C(=O)CCC3(C)C` (stereo not drawn) [Material 1149], the “Comment Code: Log” value was “K (Log of liquid dish neat product liquid-air partition coefficient greater than or equal to 7)” and the “Log … (Comment Code K/L)” value is recorded as “K (Log of liquid dish neat product liquid-air partition coefficient greater than or equal to 7)”.
